Results from patent publication US20250230165A1, “HETEROCYCLIC COMPOUNDS FOR USE IN THE TREATMENT OF CANCER” (ARTIOS PHARMA LIMITED, priority 2021, published 2025).

Molecular target: T1, Human Polθ polymerase domain (aa1820-2590) (Homo sapiens, UniProt O75417)
T1 construct: Human Polθ polymerase domain (aa1820-2590) was expressed in E. coli; made in house; host or cells: E. coli
T1 sequence (O75417 1820-2590): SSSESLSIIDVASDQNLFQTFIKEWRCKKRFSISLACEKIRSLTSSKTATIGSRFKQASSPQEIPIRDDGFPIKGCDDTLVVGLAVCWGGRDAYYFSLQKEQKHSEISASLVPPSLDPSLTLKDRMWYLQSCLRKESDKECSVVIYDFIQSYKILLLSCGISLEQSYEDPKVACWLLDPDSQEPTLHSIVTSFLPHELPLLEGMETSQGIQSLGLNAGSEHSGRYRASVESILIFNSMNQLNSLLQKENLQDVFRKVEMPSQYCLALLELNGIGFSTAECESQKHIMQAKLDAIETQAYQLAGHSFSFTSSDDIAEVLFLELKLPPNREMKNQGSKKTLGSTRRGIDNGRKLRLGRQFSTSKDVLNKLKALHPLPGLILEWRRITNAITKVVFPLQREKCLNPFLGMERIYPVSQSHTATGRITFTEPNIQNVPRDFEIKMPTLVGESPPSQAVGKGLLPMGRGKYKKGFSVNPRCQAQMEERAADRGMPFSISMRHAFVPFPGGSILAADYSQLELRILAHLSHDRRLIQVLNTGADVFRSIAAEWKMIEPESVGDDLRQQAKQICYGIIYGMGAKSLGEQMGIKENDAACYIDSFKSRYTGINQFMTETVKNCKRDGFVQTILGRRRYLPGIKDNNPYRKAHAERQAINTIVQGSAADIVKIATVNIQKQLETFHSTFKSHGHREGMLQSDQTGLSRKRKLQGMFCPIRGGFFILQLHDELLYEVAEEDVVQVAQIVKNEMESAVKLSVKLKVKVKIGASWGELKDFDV
Experiment: Polθ Polymerase Domain Kinact/KI Assay (PicoGreen)
Assay type: biochemical
Settings: 0.8 nM Polθ, 100 nM DNA substrate, kobs vs [I] fit for 2-step covalent inhibitor
Method in brief: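 Time-dependent inhibition was followed by quenching reactions with EDTA at points up to 60 min, then staining product DNA with PicoGreen fluorescence. Reactions held 0.8 nM E. coli-expressed Polθ, 100 nM primed DNA substrate and […] at pH 7.5, 1% DMSO. kobs versus inhibitor concentration gave Kinact and KI.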

Q: `C=CC(=O)N1CCN(c2cccc(N3C[C@H]4CC(=O)N(c5cc(C(F)(F)F)cc(C)n5)[C@@H]4C(=O)N(C)c4cccc(F)c43)c2)CC1` [Example 54, (3aR,11aS)-5-(3-(4-acryloylpiperazin-1-yl)phenyl)-6-fluoro-10-methyl-1-(6-methyl-4-(trifluoromethyl)pyridin-2-yl)-1,3a,4,5,10,11a-hexahydro-2H-benzo[b]pyrrolo[2,3-f][1,4]diazocine-2,11(3H)-dione] was tested. Which Kinact/Kl did it give?
A: 110000 M⁻¹ s⁻¹

Q: `C=CC(=O)N1CCN(c2cccc(N3C[C@H]4CC(=O)N(c5cc(C(F)(F)F)cc(C)n5)[C@@H]4C(=O)N(C)c4cccc(F)c43)n2)CC1` [Example 55, (3aR,11aS)-5-(6-(4-acryloylpiperazin-1-yl)pyridin-2-yl)-6-fluoro-10-methyl-1-(6-methyl-4-(trifluoromethyl)pyridin-2-yl)-1,3a,4,5,10,11a-hexahydro-2H-benzo[b]pyrrolo[2,3-f][1,4]diazocine-2,11(3H)-dione] was tested. Which Kinact/Kl did it give?
A: 15000 M⁻¹ s⁻¹

Q: With `C=CC(=O)N1CCN(c2cccc(N3C[C@H]4CC(=O)N(c5cc(C(F)(F)F)cc(C)n5)[C@@H]4C(=O)N(C)c4cccc(Cl)c43)n2)CC1` [Example 56, (3aR,11aS)-5-(6-(4-acryloylpiperazin-1-yl)pyridin-2-yl)-6-chloro-10-methyl-1-(6-methyl-4-(trifluoromethyl)pyridin-2-yl)-1,3a,4,5,10,11a-hexahydro-2H-benzo[b]pyrrolo[2,3-f][1,4]diazocine-2,11(3H)-dione] as the molecule, how does the Kinact/Kl read?
A: 36000 M⁻¹ s⁻¹

Q: How did the Kinact/Kl turn out when `C=CC(=O)N1CC(Oc2cccc(N3C[C@H]4CC(=O)N(c5cc(C(F)(F)F)cc(C)n5)[C@@H]4C(=O)N(C)c4cccc(F)c43)n2)C1` [Example 57, (3aR,11aS)-5-(6-((1-acryloylazetidin-3-yl)oxy)pyridin-2-yl)-6-fluoro-10-methyl-1-(6-methyl-4-(trifluoromethyl)pyridin-2-yl)-1,3a,4,5,10,11a-hexahydro-2H-benzo[b]pyrrolo[2,3-f][1,4]diazocine-2,11(3H)-dione] was run?
A: 34000 M⁻¹ s⁻¹

Q: Which Kinact/Kl does the source give for `C=CC(=O)N1C[C@@H]2CN(CCN3C[C@H]4CC(=O)N(c5cc(C(F)(F)F)cc(C)n5)[C@@H]4C(=O)N(C)c4cccc(F)c43)CCN2[C@H](C)C1` [Example 63a, (3aR,11aS)-5-(2-((6R/S,9aS/R)-8-acryloyl-6-methyloctahydro-2H-pyrazino[1,2-a]pyrazin-2-yl)ethyl)-6-fluoro-10-methyl-1-(6-methyl-4-(trifluoromethyl)pyridin-2-yl)-1,3a,4,5,10,11a-hexahydro-2H-benzo[b]pyrrolo[2,3-f][1,4]diazocine-2,11(3H)-dione] here?
A: 3.1e+06 M⁻¹ s⁻¹

Q: How did the Kinact/Kl turn out when `C=CC(=O)N1C[C@H]2CN(CCN3C[C@H]4CC(=O)N(c5cc(C(F)(F)F)cc(C)n5)[C@@H]4C(=O)N(C)c4cccc(F)c43)CCN2[C@@H](C)C1` [Example 63b, (3aR,11aS)-5-(2-((6S/R,9aR/S)-8-acryloyl-6-methyloctahydro-2H-pyrazino[1,2-a]pyrazin-2-yl)ethyl)-6-fluoro-10-methyl-1-(6-methyl-4-(trifluoromethyl)pyridin-2-yl)-1,3a,4,5,10,11a-hexahydro-2H-benzo[b]pyrrolo[2,3-f][1,4]diazocine-2,11(3H)-dione] was run?
A: 190000 M⁻¹ s⁻¹

Q: For `C=CC(=O)N1C[C@@H]2CN(CCN3C[C@H]4CC(=O)N(c5cc(C(F)(F)F)cc(C)n5)[C@@H]4C(=O)N(C)c4cccc(F)c43)CCN2[C@@H](C)C1` [Example 64b, (3aR,11aS)-5-(2-((6S/R,9aS/R)-8-acryloyl-6-methyloctahydro-2H-pyrazino[1,2-a]pyrazin-2-yl)ethyl)-6-fluoro-10-methyl-1-(6-methyl-4-(trifluoromethyl)pyridin-2-yl)-1,3a,4,5,10,11a-hexahydro-2H-benzo[b]pyrrolo[2,3-f][1,4]diazocine-2,11(3H)-dione], which Kinact/Kl is on record?
A: 270000 M⁻¹ s⁻¹

Q: How did the Kinact/Kl turn out when `C=C(CN(C)C)C(=O)N1CC(C(=O)N(C)CCN2C[C@H]3CC(=O)N(c4cc(C(F)(F)F)cc(C)n4)[C@@H]3C(=O)N(C)c3cccc(Cl)c32)C1` [Example 65, N-(2-((3aR,11aS)-6-chloro-10-methyl-1-(6-methyl-4-(trifluoromethyl)pyridin-2-yl)-2,11-dioxo-1,2,3,3a,4,10,11,11a-octahydro-5H-benzo[b]pyrrolo[2,3-f][1,4]diazocin-5-yl)ethyl)-1-(2-((dimethylamino)methyl)acryloyl)-N-methylazetidine-3-carboxamide] was run?
A: 4.96e+06 M⁻¹ s⁻¹

Q: How did the Kinact/Kl turn out when `C=CC(=O)N1CC[C@H](NCCN2C[C@H]3CC(=O)N(c4cc(C(F)(F)F)cc(C)n4)[C@@H]3C(=O)N(C)c3cccc(Cl)c32)[C@H](F)C1` [Example 66, (3aR,11aS)-5-(2-(((3R,4S)-1-acryloyl-3-fluoropiperidin-4-yl)amino)ethyl)-6-chloro-10-methyl-1-(6-methyl-4-(trifluoromethyl)pyridin-2-yl)-1,3a,4,5,10,11a-hexahydro-2H-benzo[b]pyrrolo[2,3-f][1,4]diazocine-2,11(3H)-dione] was run?
A: 2.11e+06 M⁻¹ s⁻¹

Q: Which Kinact/Kl does the source give for `C=CC(=O)N1CC[C@H](N(C)CCN2C[C@H]3CC(=O)N(c4cc(C(F)(F)F)cc(C)n4)[C@@H]3C(=O)N(C)c3cccc(Cl)c32)[C@H](F)C1` [Example 67, (3aR,11aS)-5-(2-(((3R,4S)-1-acryloyl-3-fluoropiperidin-4-yl)(methyl)amino)ethyl)-6-chloro-10-methyl-1-(6-methyl-4-(trifluoromethyl)pyridin-2-yl)-1,3a,4,5,10,11a-hexahydro-2H-benzo[b]pyrrolo[2,3-f][1,4]diazocine-2,11(3H)-dione] here?
A: 2.32e+06 M⁻¹ s⁻¹

Q: Which Kinact/Kl does the source give for `C=CC(=O)N1CC(NCCCN2C[C@H]3CC(=O)N(c4cc(C(F)(F)F)cc(C)n4)[C@@H]3C(=O)N(C)c3cccc(F)c32)C1` [Example 70, (3aR,11aS)-5-(3-((1-acryloylazetidin-3-yl)amino)propyl)-6-fluoro-10-methyl-1-(6-methyl-4-(trifluoromethyl)pyridin-2-yl)-1,3a,4,5,10,11a-hexahydro-2H-benzo[b]pyrrolo[2,3-f][1,4]diazocine-2,11(3H)-dione] here?
A: 970000 M⁻¹ s⁻¹

Q: How did the Kinact/Kl turn out when `C=CC(=O)N1CC(N(C)CCCN2C[C@H]3CC(=O)N(c4cc(C(F)(F)F)cc(C)n4)[C@@H]3C(=O)N(C)c3cccc(F)c32)C1` [Example 71, (3aR,11aS)-5-(3-((1-acryloylazetidin-3-yl)(methyl)amino)propyl)-6-fluoro-10-methyl-1-(6-methyl-4-(trifluoromethyl)pyridin-2-yl)-1,3a,4,5,10,11a-hexahydro-2H-benzo[b]pyrrolo[2,3-f][1,4]diazocine-2,11(3H)-dione] was run?
A: 420000 M⁻¹ s⁻¹

Q: Which Kinact/Kl does the source give for `C=CC(=O)N1CC(C)(N2CCN(CCN3C[C@H]4CC(=O)N(c5cc(C(F)(F)F)cc(C)n5)[C@@H]4C(=O)N(C)c4cccc(C)c43)CC2)C1` [Example 72, (3aR,11aS)-5-(2-(4-(1-acryloyl-3-methylazetidin-3-yl)piperazin-1-yl)ethyl)-6,10-dimethyl-1-(6-methyl-4-(trifluoromethyl)pyridin-2-yl)-1,3a,4,5,10,11a-hexahydro-2H-benzo[b]pyrrolo[2,3-f][1,4]diazocine-2,11(3H)-dione] here?
A: 2.36e+06 M⁻¹ s⁻¹
